{"source": "patent US20170105953A1", "about": "“METHOD FOR SUPPRESSING DIABETES AND/OR HEPATIC LIPIDS USING TORMENTIC ACID” (priority 2015, published 2017)", "key": {"[1]": {"tested_on": "apo C-III", "assay": "semiquantitative RT-PCR, liver apo C-III mRNA", "assay_type": "in vivo, C57BL/6J mice", "conditions": "HF diet-fed mice, normalized to GAPDH, vs HF group", "excerpt": "(§1) For part 2, C57BL/6J mice (4 weeks old) were obtained from the National Laboratory Animal Breeding and Research Center. The mice were divided randomly into two groups after 7 days acclimation. The control (CON) group (n=9) was fed a low-fat diet (diet 12450B, Research Diets, Inc., New Brunswick, N.J., USA), whereas the experimental group was fed a 45% high-fat diet (diet 12451, Research Diets, Inc.) for 12 weeks. The compositions of the experimental diets are given in previous studies. […]\n(§2) Total RNA from the liver tissue was isolated with a Trizol reagent (Molecular Research Center, Inc., Cincinnati, Ohio, USA) according to the manufacturer's directions. The integrity of the extracted total RNA was examined by 2% agarose gel electrophoresis, and the RNA concentration was determined by ultraviolet (UV) light absorbency at 260 and 280 nm (spectrophotometer U-2800A, Hitachi). […] The relative density of the band was evaluated using AlphaDigiDoc 1201 software (Alpha Innotech Co., San Leandro, Calif., USA). All of the measured PCR products were normalized to the amount of cDNA of GAPDH in each sample. […]"}, "[2]": {"tested_on": "G6 Pase", "assay": "semiquantitative RT-PCR, liver G6 Pase mRNA", "assay_type": "in vivo, C57BL/6J mice", "conditions": "HF diet-fed mice, normalized to GAPDH, vs HF group", "excerpt": "as §1, §2"}, "[3]": {"tested_on": "GLUT4", "assay": "western blot, GLUT4 protein in skeletal muscle", "assay_type": "in vivo, C57BL/6J mice", "conditions": "HF diet-fed mice", "excerpt": "FIG. 4A is a western blot analysis showing the protein contents of GLUT4 in skeletal muscle, and phospho-AMPK (Thr172) and total-AMPK (Thr172) in both liver tissue and skeletal muscle, and phospho-Akt (Ser473) and total-Akt (Ser473) in skeletal muscle of the mice receiving tormentic acid (PTA) by oral gavage for 4 weeks; and\nFIG. 4B is a diagram showing the protein contents of GLUT4 in skeletal muscle, the expression levels of phospho-AMPK (Thr172) to total AMPK in both liver tissue and skeletal muscle, and quantified results from FIG. 4A for the phosphorylation status of Akt (p-Akt normalized to total Akt (pAkt/Akt)) in skeletal muscle of the mice receiving tormentic acid (PTA) by oral gavage for 4 weeks.\nas §1"}, "[4]": {"assay": "oral glucose tolerance test (OGTT) in normal mice", "assay_type": "in vivo", "conditions": "12 h fasted ICR mice; 0.2, 0.4 and 0.8 g/kg orally 30 min before oral glucose load 1 g/kg; from 30 to 120 min", "protocol": "For part 1, an oral glucose tolerance test (OGTT) was performed on 12 h fasted ICR mice (n=5) that were allowed access to 0.2, 0.4, and 0.8 g/kg PTA or an equivalent amount of vehicle (water), which were given orally 30 min before an oral glucose load (1 g/kg body wt). The control group was given glucose, whereas the normal group was not. Blood samples were collected from the retro-orbital sinus of fasted mice at the time of the glucose administration (0) and every 30 min until 120 min after glucose administration."}}, "note": "Entries after “also recorded” stand apart in the source; their conditions may differ.", "data": [{"smiles": "C[C@@H]1CC[C@]2(C(=O)O)CC[C@]3(C)C(=CC[C@@H]4[C@@]5(C)C[C@@H](O)[C@H](O)C(C)(C)[C@@H]5CC[C@]43C)[C@@H]2[C@]1(C)O", "note": "[PTA, tormentic acid]", "values": [{"measurement": "mRNA level of apo C-III in liver", "setting": "[1]; PTA1 0.06 g/kg/day 4 weeks", "value": "significantly decrease"}, {"measurement": "mRNA level of apo C-III in liver", "setting": "[1]; PTA2 0.12 g/kg/day 4 weeks", "value": "significantly decrease"}, {"measurement": "mRNA level of G6 Pase in liver", "setting": "[2]; PTA1 0.06 g/kg/day 4 weeks", "value": "significantly decrease"}, {"measurement": "mRNA level of G6 Pase in liver", "setting": "[2]; PTA2 0.12 g/kg/day 4 weeks", "value": "significantly decrease"}, {"measurement": "membrane protein levels of GLUT4", "setting": "[3]; PTA1 0.06 g/kg/day 4 weeks", "value": "significantly increased"}, {"measurement": "membrane protein levels of GLUT4", "setting": "[3]; PTA2 0.12 g/kg/day 4 weeks", "value": "significantly increased; also recorded: marked increases"}, {"measurement": "levels of blood glucose (OGTT)", "setting": "[4]", "value": "decreased"}]}]}
